Source: ChEMBL document CHEMBL4396865, “Current advances of triazole alcohols derived from fluconazole: Design, in vitro and in silico studies” (2019)
≈ marks a conversion by molar mass, not a printed value.

Legend:
Type in all cases: functional
[1] = test system: Candida tropicalis; assay: Potency index, ratio of fluconazole MIC to test compound MIC for Candida tropicalis
[2] = test system: Trichophyton rubrum; assay: Antifungal activity against Trichophyton rubrum after 24 hrs by microbroth dilution method
[3] = test system: Microsporum canis; assay: Antifungal activity against Microsporum canis after 24 hrs by microbroth dilution method
[4] = test system: Candida albicans; assay: Potency index, ratio of fluconazole MIC to test compound MIC for Candida albicans ATCC 76615
[5] = test system: Trichophyton rubrum; assay: Potency index, ratio of fluconazole MIC to test compound MIC for Trichophyton rubrum
[6] = test system: Fonsecaea compacta; assay: Antifungal activity against Fonsecaea compacta after 24 hrs by microbroth dilution method
[7] = test system: Microsporum canis; assay: Potency index, ratio of fluconazole MIC to test compound MIC for Microsporum canis
[8] = test system: Fonsecaea compacta; assay: Potency index, ratio of fluconazole MIC to test compound MIC for Fonsecaea compacta
[9] = test system: Aspergillus fumigatus; assay: Antifungal activity against Aspergillus fumigatus after 24 hrs by microbroth dilution method
[10] = test system: Aspergillus fumigatus; assay: Potency index, ratio of fluconazole MIC to test compound MIC for Aspergillus fumigatus
[11] = test system: Candida tropicalis; assay: Antifungal activity against Candida tropicalis after 24 hrs by microbroth dilution method
[12] = test system: Cryptococcus neoformans; assay: Potency index, ratio of fluconazole MIC to test compound MIC for activity against Cryptococcus neoformans ATCC 32609
[13] = test system: Candida parapsilosis; assay: Antifungal activity against Candida parapsilosis; conditions: Lodderomyces parapsilosis
[14] = test system: Cryptococcus neoformans; assay: Antifungal activity against Cryptococcus neoformans; conditions: Cryptococcus neoformans
[15] = test system: Candida albicans; assay: Antifungal activity against Candida albicans; conditions: Candida albicans
[16] = test system: Candida tropicalis; assay: Antifungal activity against Candida tropicalis; conditions: Candida tropicalis
[17] = test system: Pichia kudriavzevii; assay: Antifungal activity against Candida krusei
[18] = test system: Trichophyton rubrum; assay: Antifungal activity against Trichophyton rubrum after 7 days by NCCLS protocol based method; conditions: 168 h
[19] = test system: Candida tropicalis; assay: Antifungal activity against Candida tropicalis after 24 hrs by NCCLS protocol based method
[20] = test system: Nannizzia gypsea; assay: Antifungal activity against Microsporum gypseum after 7 days by NCCLS protocol based method; conditions: 168 h
[21] = test system: Candida albicans; assay: Antifungal activity against Candida albicans after 24 hrs by NCCLS protocol based method
[22] = test system: Cryptococcus neoformans; assay: Antifungal activity against Cryptococcus neoformans after 72 hrs by NCCLS protocol based method
[23] = test system: Candida albicans; assay: Antifungal activity against fluconalzole-susceptible Candida albicans after 24 hrs
[24] = test system: Candida parapsilosis; assay: Antifungal activity against fluconalzole-susceptible Candida parapsilosis after 24 hrs; conditions: Lodderomyces parapsilosis
[25] = test system: Aspergillus fumigatus; assay: Antifungal activity against Aspergillus fumigatus; conditions: Aspergillus fumigatus; read-out: MIC

| SMILES | MIC80 [2] | MIC80 [3] | MIC80 [6] | MIC80 [9] | MIC80 [11] | MIC80 [13] | MIC80 [14] | MIC80 [15] | MIC80 [16] | MIC80 [17] | Ratio [1] | Ratio [4] | Ratio [5] | Ratio [7] | Ratio [8] | Ratio [10] | Ratio [12] | other results |
| --- | --- | --- | --- | --- | --- | --- | --- | --- | --- | --- | --- | --- | --- | --- | --- | --- | --- | --- |
| Cc1ccccc1CN(CC(O)(Cn1cncn1)c1ccc(F)cc1F)C1CC1 (stereo not given) | 0.125 µg/mL (≈ 0.314 µM) | 0.125 µg/mL (≈ 0.314 µM) | 0.125 µg/mL (≈ 0.314 µM) | 0.125 µg/mL (≈ 0.314 µM) | 0.125 µg/mL (≈ 0.314 µM) | – | – | – | – | – | 4 | 4 | 4 | 4 | 4 | 4 | 4 | – |
| CC(C)(C)c1ccc(CN(CC(O)(Cn2cncn2)c2ccc(F)cc2F)C2CC2)cc1 (stereo not given) | 0.125 µg/mL (≈ 0.284 µM) | 0.125 µg/mL (≈ 0.284 µM) | 0.125 µg/mL (≈ 0.284 µM) | 0.125 µg/mL (≈ 0.284 µM) | 0.125 µg/mL (≈ 0.284 µM) | – | – | – | – | – | 4 | 4 | 4 | 4 | 4 | 4 | 4 | – |
| CN(CCCOc1ccccc1[N+](=O)[O-])CC(O)(Cn1cncn1)c1ccc(F)cc1F (stereo not given) | – | – | – | – | – | – | – | – | – | – | – | – | – | – | – | – | – | MIC [18]: 0.001 to 0.016 µg/mL (≈ 0.00223 to 0.0358 µM); MIC [19]: 0.001 to 0.016 µg/mL (≈ 0.00223 to 0.0358 µM); MIC [20]: 0.001 to 0.016 µg/mL (≈ 0.00223 to 0.0358 µM); MIC [21]: 0.001 to 0.016 µg/mL (≈ 0.00223 to 0.0358 µM); MIC [22]: 0.001 to 0.016 µg/mL (≈ 0.00223 to 0.0358 µM) |
| OC(Cn1cncn1)(Cn1cnc(SCc2ccc(Cl)cc2Cl)n1)c1ccc(F)cc1F (stereo not given) | – | – | – | – | – | – | – | – | – | – | – | – | – | – | – | – | – | MIC [23]: 0.063 to 1 µg/mL (≈ 0.127 to 2.01 µM); MIC [24]: 0.063 to 1 µg/mL (≈ 0.127 to 2.01 µM) |
| OC(CN(Cc1ccccc1Cl)C1CC1)(Cn1cncn1)c1ccc(F)cc1F (stereo not given) | 0.125 µg/mL (≈ 0.298 µM) | 0.125 µg/mL (≈ 0.298 µM) | 0.125 µg/mL (≈ 0.298 µM) | 0.125 µg/mL (≈ 0.298 µM) | 0.125 µg/mL (≈ 0.298 µM) | – | – | – | – | – | 4 | 4 | 4 | 4 | 4 | 4 | 4 | – |
| OC(CN(Cc1ccccc1Br)C1CC1)(Cn1cncn1)c1ccc(F)cc1F (stereo not given) | 0.125 µg/mL (≈ 0.27 µM) | 0.125 µg/mL (≈ 0.27 µM) | 0.125 µg/mL (≈ 0.27 µM) | 0.125 µg/mL (≈ 0.27 µM) | 0.125 µg/mL (≈ 0.27 µM) | – | – | – | – | – | 4 | 4 | 4 | 4 | 4 | 4 | 4 | – |
| CCCCOc1ccccc1N1CCN(CCc2nnn(CC(O)(Cn3cncn3)c3ccc(F)cc3F)n2)CC1 (stereo not given) | – | – | – | – | – | – | – | – | – | – | – | – | – | – | – | – | – | MIC ([14]; read-out: MIC): 1 to 8 µg/mL (≈ 1.76 to 14.1 µM); MIC ([15]; read-out: MIC): 1 to 8 µg/mL (≈ 1.76 to 14.1 µM); MIC ([16]; read-out: MIC): 1 to 8 µg/mL (≈ 1.76 to 14.1 µM); MIC [17]: 1 to 8 µg/mL (≈ 1.76 to 14.1 µM); MIC [25]: 1 to 8 µg/mL (≈ 1.76 to 14.1 µM) |
| CN(CC(=O)Nc1ccc(F)cc1)CC(O)(Cn1cncn1)c1ccc(F)cc1F (stereo not given) | – | – | – | – | – | 0.25 to 1 µg/mL (≈ 0.596 to 2.38 µM) | 0.0156 µg/mL (≈ 0.0372 µM) | 0.0156 µg/mL (≈ 0.0372 µM) | 0.25 to 1 µg/mL (≈ 0.596 to 2.38 µM) | 0.25 to 1 µg/mL (≈ 0.596 to 2.38 µM) | – | – | – | – | – | – | – | – |
| OC(Cn1cncn1)(Cn1cnc(SCc2ccc(Cl)cc2)n1)c1ccc(F)cc1F (stereo not given) | – | – | – | – | – | – | – | – | – | – | – | – | – | – | – | – | – | MIC [23]: 0.063 to 1 µg/mL (≈ 0.136 to 2.16 µM); MIC [24]: 0.063 to 1 µg/mL (≈ 0.136 to 2.16 µM) |
| CN(CC(=O)Nc1ccc(Br)cc1)CC(O)(Cn1cncn1)c1ccc(F)cc1F (stereo not given) | – | – | – | – | – | 0.25 to 1 µg/mL (≈ 0.52 to 2.08 µM) | 0.0156 µg/mL (≈ 0.0325 µM) | 0.0156 µg/mL (≈ 0.0325 µM) | 0.25 to 1 µg/mL (≈ 0.52 to 2.08 µM) | 0.25 to 1 µg/mL (≈ 0.52 to 2.08 µM) | – | – | – | – | – | – | – | – |
| OC(CN(Cc1ccc(F)cc1)C1CC1)(Cn1cncn1)c1ccc(F)cc1F (stereo not given) | 0.125 µg/mL (≈ 0.311 µM) | 0.125 µg/mL (≈ 0.311 µM) | 0.125 µg/mL (≈ 0.311 µM) | 0.125 µg/mL (≈ 0.311 µM) | 0.125 µg/mL (≈ 0.311 µM) | – | – | – | – | – | 4 | 4 | 4 | 4 | 4 | 4 | 4 | – |
| CCC(C)n1ncn(-c2ccc(N3CCN(c4ccc(OCC5COC(Cn6cncn6)(c6ccc(Cl)cc6Cl)O5)cc4)CC3)cc2)c1=O (stereo not given) [ITRACONAZOLE] | – | – | – | – | – | – | – | – | – | – | – | – | – | – | – | – | – | MIC [18]: 0.0625 µg/mL (≈ 0.0886 µM); MIC [19]: 0.0625 µg/mL (≈ 0.0886 µM); MIC [20]: 0.0625 µg/mL (≈ 0.0886 µM); MIC [21]: 0.0625 µg/mL (≈ 0.0886 µM); MIC [22]: 0.0625 µg/mL (≈ 0.0886 µM) |

Continued, in another order:

| MIC80 [2] | MIC80 [3] | MIC80 [6] | MIC80 [9] | MIC80 [11] | MIC80 [13] | MIC80 [14] | MIC80 [15] | MIC80 [16] | MIC80 [17] | SMILES | Ratio [1] | Ratio [4] | Ratio [5] | Ratio [7] | Ratio [8] | Ratio [10] | Ratio [12] | other results |
| --- | --- | --- | --- | --- | --- | --- | --- | --- | --- | --- | --- | --- | --- | --- | --- | --- | --- | --- |
| 0.125 µg/mL (≈ 0.298 µM) | 0.125 µg/mL (≈ 0.298 µM) | 0.125 µg/mL (≈ 0.298 µM) | 0.125 µg/mL (≈ 0.298 µM) | 0.125 µg/mL (≈ 0.298 µM) | – | – | – | – | – | OC(CN(Cc1ccc(Cl)cc1)C1CC1)(Cn1cncn1)c1ccc(F)cc1F (stereo not given) | 4 | 4 | 4 | 4 | 4 | 4 | 4 | – |
| 0.125 µg/mL (≈ 0.311 µM) | 0.125 µg/mL (≈ 0.311 µM) | 0.125 µg/mL (≈ 0.311 µM) | 0.125 µg/mL (≈ 0.311 µM) | 0.125 µg/mL (≈ 0.311 µM) | – | – | – | – | – | OC(CN(Cc1ccccc1F)C1CC1)(Cn1cncn1)c1ccc(F)cc1F (stereo not given) | 4 | 4 | 4 | 4 | 4 | 4 | 4 | – |
| – | – | – | – | – | 0.25 to 1 µg/mL (≈ 0.546 to 2.19 µM) | 0.0156 µg/mL (≈ 0.0341 µM) | 0.0156 µg/mL (≈ 0.0341 µM) | 0.25 to 1 µg/mL (≈ 0.546 to 2.19 µM) | 0.25 to 1 µg/mL (≈ 0.546 to 2.19 µM) | CN(CC(=O)Nc1ccc(C(C)(C)C)cc1)CC(O)(Cn1cncn1)c1ccc(F)cc1F (stereo not given) | – | – | – | – | – | – | – | – |
| – | – | – | – | – | 0.25 to 1 µg/mL (≈ 0.579 to 2.32 µM) | 0.0156 µg/mL (≈ 0.0362 µM) | 0.0156 µg/mL (≈ 0.0362 µM) | 0.25 to 1 µg/mL (≈ 0.579 to 2.32 µM) | 0.25 to 1 µg/mL (≈ 0.579 to 2.32 µM) | COc1cccc(NC(=O)CN(C)CC(O)(Cn2cncn2)c2ccc(F)cc2F)c1 (stereo not given) | – | – | – | – | – | – | – | – |
| 0.125 µg/mL (≈ 0.325 µM) | 0.125 µg/mL (≈ 0.325 µM) | 0.125 µg/mL (≈ 0.325 µM) | 0.125 µg/mL (≈ 0.325 µM) | 0.125 µg/mL (≈ 0.325 µM) | – | – | – | – | – | OC(CN(Cc1ccccc1)C1CC1)(Cn1cncn1)c1ccc(F)cc1F (stereo not given) | 4 | 4 | 4 | 4 | 4 | 4 | 4 | – |
| – | – | – | – | – | 0.25 to 1 µg/mL (≈ 0.582 to 2.33 µM) | 0.0156 µg/mL (≈ 0.0363 µM) | 0.0156 µg/mL (≈ 0.0363 µM) | 0.25 to 1 µg/mL (≈ 0.582 to 2.33 µM) | 0.25 to 1 µg/mL (≈ 0.582 to 2.33 µM) | Cc1ccc(NC(=O)CN(C)CC(O)(Cn2cncn2)c2ccc(F)cc2F)cc1C (stereo not given) | – | – | – | – | – | – | – | – |
| – | – | – | – | – | 0.25 to 1 µg/mL (≈ 0.532 to 2.13 µM) | 0.0156 µg/mL (≈ 0.0332 µM) | 0.0156 µg/mL (≈ 0.0332 µM) | 0.25 to 1 µg/mL (≈ 0.532 to 2.13 µM) | 0.25 to 1 µg/mL (≈ 0.532 to 2.13 µM) | CN(CC(=O)Nc1cc(Cl)ccc1Cl)CC(O)(Cn1cncn1)c1ccc(F)cc1F (stereo not given) | – | – | – | – | – | – | – | – |
